Laboratory results as given in patent publication US9624241B2 (Incyte Corporation, priority 2013, dated 2017).
Like-named read-outs stand apart in the source and are kept apart here.

Experiments:
BRD4-BD1 = BRD4-BD1 (Homo sapiens (Human), UniProt O60885); test: BRD4 AlphaScreen Assay (Example A2), BRD4-BD1; type: binding; details: read-out: BRD4 BD-1 enzyme IC50
Procedure: (§1) BRD4-BD1 and BRD4-BD2 assays were conducted in white 384-well polystyrene plate in a final volume of 40 μL for BD1 and 60 μL for BD2. Inhibitors were first serially diluted in DMSO and added to the plate wells before the addition of other reaction components. […] The assays were carried out at room temperature in the assay buffer (50 mM Tris-HCl, pH 7.5, 0.01% Tween-20, 0.01% BSA, 5 mM DTT), containing 50 nM Biotin-labeled tetra-acetylated histone H4 peptide (H4Ac4) and BRD4-BD1 or BRD4-BD2 protein at concentration less than 1 nM. […] After plate sealing, the plate was incubated in the dark at room temperature for 75 min. before reading on a PHERAstar FS plate reader (BMG Labtech). IC50 determination was performed by fitting the curve of percent control activity versus the log of the inhibitor concentration using the GraphPad Prism 5.0 software.

BRD4-BD2 = BRD4-BD2 (Homo sapiens (Human), UniProt O60885); test: BRD4 AlphaScreen Assay (Example A2), BRD4-BD2; type: binding; details: read-out: BRD4 BD-2 enzyme IC50
Procedure: as §1

[1] = Assay A2, AlphaScreen, BRD4-BD1
[2] = Assay A2, AlphaScreen, BRD4-BD2

Row | SMILES | IC50 (BRD4-BD1; [1]) [µM] | IC50 (BRD4-BD2; [2]) [µM] | IC50 (BRD4-BD2) [µM] | IC50 (BRD4-BD1) [µM]
1 | Cc1noc(C)c1-c1cc(C2=CCN(C(=O)OC(C)(C)C)CC2)c2[nH]c(=O)n3c2c1OC[C@@H]3c1ccccn1 [Example 83, tert-butyl 4-[(4S)-7-(3,5-dimethylisoxazol-4-yl)-2-oxo-4-pyridin-2-yl-1,2,4,5-tetrahydroimidazo[1,5,4-de][1,4]benzoxazin-9-yl]-3,6-dihydropyridine-1(2H)-carboxylate 2,2,2-trifluoroacetate] | < 0.1 | < 0.1 | – | –
2 | Cc1noc(C)c1-c1ccc2nc(C(C)O)n3c2c1OC[C@@H]3c1ccccn1 (stereo partly drawn) [Example 90, 1-[(4S)-7-(3,5-Dimethylisoxazol-4-yl)-4-pyridin-2-yl-4,5-dihydroimidazo[1,5,4-de][1,4]benzoxazin-2-yl]ethanol] | < 0.1 | < 0.1 | – | –
3 | Cc1noc(C)c1-c1ccc2nc(C3=CCN(C(=O)OC(C)(C)C)C3)n3c2c1OC[C@@H]3c1ccccn1 [Example 98, tert-Butyl 3-[(4S)-7-(3,5-dimethylisoxazol-4-yl)-4-pyridin-2-yl-4,5-dihydroimidazo[1,5,4-de][1,4]benzoxazin-2-yl]-2,5-dihydro-1H-pyrrole-1-carboxylate] | < 0.1 | < 0.1 | – | –
4 | Cc1cnn(C)c1-c1ccc2[nH]c(=O)n3c2c1OCC3c1ccccn1 (stereo not drawn) [Example 44, 7-(1,4-Dimethyl-1H-pyrazol-5-yl)-4-pyridin-2-yl-4,5-dihydroimidazo[1,5,4-de][1,4]benzoxazin-2(1H)-one] | 1 to 10 | 0.1 to 1 | – | –
5 | Cc1noc(C)c1-c1cc(-c2ccccc2)c2[nH]c(=O)n3c2c1OCC3c1ccccc1 (stereo not drawn) [Example 43, 7-(3,5-Dimethylisoxazol-4-yl)-4,9-diphenyl-4,5-dihydroimidazo[1,5,4-de][1,4]benzoxazin-2(1H)-one] | < 0.1 | < 0.1 | – | –
6 | Cc1noc(C)c1-c1ccc2nc(N3CC(NC(=O)OC(C)(C)C)C3)n3c2c1OC[C@@H]3c1ccccn1 [Example 196, tert-butyl {1-[(4S)-7-(3,5-dimethylisoxazol-4-yl)-4-pyridin-2-yl-4,5-dihydroimidazo[1,5,4-de][1,4]benzoxazin-2-yl]azetidin-3-yl}carbamate] | < 0.1 | < 0.1 | – | –
7 | Cc1noc(C)c1-c1cc(CN)c2[nH]c(=O)n3c2c1OC[C@@H]3c1ccccn1 [Example 137, (4S)-9-(Aminomethyl)-7-(3,5-dimethylisoxazol-4-yl)-4-pyridin-2-yl-4,5-dihydroimidazo[1,5,4-de][1,4]benzoxazin-2(1H)-one bis(trifluoroacetate)] | 1 to 10 | < 0.1 | – | –
8 | Cc1noc(C)c1-c1ccc2[nH]c(=O)n3c2c1OC(C(=O)NCCO)C3c1ccccc1 (single isomer, unassigned) [Example 48B, 7-(3,5-Dimethylisoxazol-4-yl)-N-(2-hydroxyethyl)-2-oxo-4-phenyl-1,2,4,5-tetrahydroimidazo[1,5,4-de][1,4]benzoxazine-5-carboxamide] | 0.1 to 1 | < 0.1 | – | –
9 | Cc1noc(C)c1-c1cc(-c2ccc(O)nc2)c2[nH]c(=O)n3c2c1OC[C@@H]3c1ccccn1 [Example 259, (4S)-7-(3,5-dimethylisoxazol-4-yl)-9-(6-hydroxypyridin-3-yl)-4-pyridin-2-yl-4,5-dihydroimidazo[1,5,4-de][1,4]benzoxazin-2(1H)-one] | 0.1 to 1 | < 0.1 | – | –
10 | Cc1noc(C)c1-c1ccc2ncn3c2c1OC[C@@H]3c1ccccn1 [Example 92, (4S)-7-(3,5-Dimethylisoxazol-4-yl)-4-pyridin-2-yl-4,5-dihydroimidazo[1,5,4-de][1,4]benzoxazine] | < 0.1 | < 0.1 | – | –
11 | Cc1noc(C)c1-c1ccc2nc(C3CCN(C(=O)OC(C)(C)C)CC3)n3c2c1OC[C@@H]3c1ccccn1 [Example 100, tert-Butyl 4-[(4S)-7-(3,5-dimethylisoxazol-4-yl)-4-pyridin-2-yl-4,5-dihydroimidazo[1,5,4-de][1,4]benzoxazin-2-yl]piperidine-1-carboxylate] | < 0.1 | < 0.1 | – | –
12 | Cc1noc(C)c1-c1cc(Cl)c2[nH]c(=O)n3c2c1OCC3c1ccccn1 (single isomer, unassigned) [Example 266B, 9-chloro-7-(3,5-dimethylisoxazol-4-yl)-4-pyridin-2-yl-4,5-dihydroimidazo[1,5,4-de][1,4]benzoxazin-2(1H)-one] | 1 to 10 | 0.1 to 1 | – | –
13 | Cc1noc(C)c1-c1c(Cl)c(Cl)c2[nH]c(=O)n3c2c1OC[C@@H]3c1ccccn1 [Example 252, (4S)-8,9-dichloro-7-(3,5-dimethylisoxazol-4-yl)-4-pyridin-2-yl-4,5-dihydroimidazo[1,5,4-de][1,4]benzoxazin-2(1H)-one bistrifluoroacetate] | 0.1 to 1 | 0.1 to 1 | – | –
14 | CCS(=O)(=O)NC1CN(c2nc3ccc(-c4c(C)noc4C)c4c3n2[C@@H](c2ccccn2)CO4)C1 [Example 238, N-{1-[(4S)-7-(3,5-dimethylisoxazol-4-yl)-4-pyridin-2-yl-4,5-dihydroimidazo[1,5,4-de][1,4]benzoxazin-2-yl]azetidin-3-yl}ethanesulfonamide] | < 0.1 | < 0.1 | – | –
15 | Cc1noc(C)c1-c1ccc2[nH]c(=O)n3c2c1OCC3(CN)c1ccccn1 (stereo not drawn) [Example 73, 4-(Aminomethyl)-7-(3,5-dimethylisoxazol-4-yl)-4-pyridin-2-yl-4,5-dihydroimidazo[1,5,4-de][1,4]benzoxazin-2(1H)-one bis(2,2,2-trifluoroacetate)] | 0.1 to 1 | < 0.1 | – | –
16 | Cc1noc(C)c1-c1ccc2[nH]c(=O)n3c2c1OC(C(N)=O)C3c1ccccn1 (stereo not drawn) [Example 77, 7-(3,5-dimethylisoxazol-4-yl)-2-oxo-4-pyridin-2-yl-1,2,4,5-tetrahydroimidazo[1,5,4-de][1,4]benzoxazine-5-carboxamide 2,2,2-trifluoroacetate] | 0.1 to 1 | 0.1 to 1 | – | –
17 | Cc1noc(C)c1-c1ccc2[nH]c(=S)n3c2c1OCC3c1ccccn1 (stereo not drawn) [Example 255, 7-(3,5-Dimethylisoxazol-4-yl)-4-pyridin-2-yl-4,5-dihydroimidazo[1,5,4-de][1,4]benzoxazine-2(1H)-thione] | < 0.1 | < 0.1 | – | –
18 | Cc1noc(C)c1-c1cc(C)c2[nH]c(=O)n3c2c1OCC3c1ccccn1 (stereo not drawn) [Example 268, 7-(3,5-dimethylisoxazol-4-yl)-9-methyl-4-pyridin-2-yl-4,5-dihydroimidazo[1,5,4-de][1,4]benzoxazin-2(1H)-one] | 1 to 10 | 0.1 to 1 | – | –
19 | Cc1noc(C)c1-c1ccc2nc(N(C)CCO)n3c2c1OCC3c1ccccn1 (stereo not drawn) [Example 185, 2-[[7-(3,5-dimethylisoxazol-4-yl)-4-pyridin-2-yl-4,5-dihydroimidazo[1,5,4-de][1,4]benzoxazin-2-yl](methyl)amino]ethanol] | 0.1 to 1 | – | < 0.1 | –
20 | Cc1noc(C)c1-c1cc(-c2cn[nH]c2C)c2[nH]c(=O)n3c2c1OCC3c1ccccn1 (stereo not drawn) [Example 257, 7-(3,5-dimethylisoxazol-4-yl)-9-(3-methyl-1H-pyrazol-4-yl)-4-pyridin-2-yl-4,5-dihydroimidazo[1,5,4-de][1,4]benzoxazin-2(1H)-one] | 0.1 to 1 | < 0.1 | – | –
21 | Cc1noc(C)c1-c1cc(CO)c2[nH]c(=O)n3c2c1OCC3c1ccccn1 (stereo not drawn) [Example 254, 7-(3,5-Dimethylisoxazol-4-yl)-9-(hydroxymethyl)-4-pyridin-2-yl-4,5-dihydroimidazo[1,5,4-de][1,4]benzoxazin-2(1H)-one] | < 0.1 | < 0.1 | – | –
22 | Cc1noc(C)c1-c1ccc2nc(C3CCNC3)n3c2c1OC[C@@H]3c1ccccn1 (single isomer, unassigned; diastereomer 1) [Example 106A] | < 0.1 | < 0.1 | – | –
23 | Cc1noc(C)c1-c1ccc2nc(N3CC(O)C3)n3c2c1OCC3c1cccnc1 (single isomer, unassigned) [Example 160A, 1-[7-(3,5-Dimethylisoxazol-4-yl)-4-pyridin-3-yl-4,5-dihydroimidazo[1,5,4-de][1,4]benzoxazin-2-yl]azetidin-3-ol] | 1 to 10 | 0.1 to 1 | – | –
24 | CNC(=O)c1ncccc1C1COc2c(-c3c(C)noc3C)ccc3[nH]c(=O)n1c23 (stereo not drawn) [Example 128, 3-[7-(3,5-Dimethylisoxazol-4-yl)-2-oxo-1,2,4,5-tetrahydroimidazo[1,5,4-de][1,4]benzoxazin-4-yl]-N-methylpyridine-2-carboxamide] | < 0.1 | < 0.1 | – | –
25 | CCC1(c2ccccn2)COc2c(-c3c(C)noc3C)ccc3[nH]c(=O)n1c23 (stereo not drawn) [Example 70, 7-(3,5-Dimethylisoxazol-4-yl)-4-ethyl-4-pyridin-2-yl-4,5-dihydroimidazo[1,5,4-de][1,4]benzoxazin-2(1H)-one 2,2,2-trifluoroacetate] | – | – | < 0.1 | < 0.1
26 | CNC(=O)C1Oc2c(-c3c(C)noc3C)ccc3[nH]c(=O)n(c23)C1c1ccccn1 (stereo not drawn) [Example 76, 7-(3,5-dimethylisoxazol-4-yl)-N-methyl-2-oxo-4-pyridin-2-yl-1,2,4,5-tetrahydroimidazo[1,5,4-de][1,4]benzoxazine-5-carboxamide 2,2,2-trifluoroacetate] | 0.1 to 1 | 0.1 to 1 | – | –
27 | Cc1noc(C)c1-c1cc(C#N)c2[nH]c(=O)n3c2c1OCC3c1ccccc1 (stereo not drawn) [Example 42, 7-(3,5-Dimethylisoxazol-4-yl)-2-oxo-4-phenyl-1,2,4,5-tetrahydroimidazo[1,5,4-de][1,4]benzoxazine-9-carbonitrile] | < 0.1 | < 0.1 | – | –
